{
  "source": "patent US20230286958A1",
  "about": "“PLASMA KALLIKREIN INHIBITORS” (Merck Sharp & Dohme LLC, priority 2020, published 2023)",
  "key": {"[1]": {"target": "Human plasma kallikrein (Homo sapiens (Human), UniProt P03952)", "sequence (P03952 391-638)": "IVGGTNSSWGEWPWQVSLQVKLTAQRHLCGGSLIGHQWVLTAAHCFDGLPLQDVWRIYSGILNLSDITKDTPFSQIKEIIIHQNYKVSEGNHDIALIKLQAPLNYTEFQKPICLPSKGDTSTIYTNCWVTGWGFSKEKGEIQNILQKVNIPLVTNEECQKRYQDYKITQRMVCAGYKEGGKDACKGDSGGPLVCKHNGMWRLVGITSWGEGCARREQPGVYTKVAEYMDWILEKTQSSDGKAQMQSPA", "sequence (P03952 20-390 partner)": "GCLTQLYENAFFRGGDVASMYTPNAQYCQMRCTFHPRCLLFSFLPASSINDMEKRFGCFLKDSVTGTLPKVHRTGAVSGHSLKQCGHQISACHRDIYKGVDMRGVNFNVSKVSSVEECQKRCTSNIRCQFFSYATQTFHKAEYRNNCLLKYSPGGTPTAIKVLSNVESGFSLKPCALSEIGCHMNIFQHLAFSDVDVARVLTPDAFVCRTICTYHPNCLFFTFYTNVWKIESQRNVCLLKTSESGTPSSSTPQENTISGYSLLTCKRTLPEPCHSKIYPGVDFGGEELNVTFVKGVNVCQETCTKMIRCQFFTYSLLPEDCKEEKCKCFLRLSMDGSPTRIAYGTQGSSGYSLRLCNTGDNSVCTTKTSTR", "experiment": "Kallikrein Assay (fluorogenic substrate Acetyl-K-P-R-AFC)", "format": "biochemical", "conditions": "Plasma Kallikrein (PKal)", "procedure,_shortened": "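Ki is derived from IC50 with the Cheng-Prusoff equation, and IC50 from the inflection point of a four-parameter logistic curve. The rate of AFC release is read with 0.5 nM purified enzyme and […] substrate at room temperature or 37 °C.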"}, "[2]": {"target": "human Factor XIa (Homo sapiens (Human), UniProt P03951)", "sequence (P03951 388-625 limits assumed)": "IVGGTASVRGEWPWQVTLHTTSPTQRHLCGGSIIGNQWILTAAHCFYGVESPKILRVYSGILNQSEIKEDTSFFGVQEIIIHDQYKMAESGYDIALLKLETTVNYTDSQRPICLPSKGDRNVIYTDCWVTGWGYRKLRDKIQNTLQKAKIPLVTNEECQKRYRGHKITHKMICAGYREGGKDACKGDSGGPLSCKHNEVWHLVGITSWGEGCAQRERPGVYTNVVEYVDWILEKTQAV", "sequence (P03951 19-387 partner limits assumed)": "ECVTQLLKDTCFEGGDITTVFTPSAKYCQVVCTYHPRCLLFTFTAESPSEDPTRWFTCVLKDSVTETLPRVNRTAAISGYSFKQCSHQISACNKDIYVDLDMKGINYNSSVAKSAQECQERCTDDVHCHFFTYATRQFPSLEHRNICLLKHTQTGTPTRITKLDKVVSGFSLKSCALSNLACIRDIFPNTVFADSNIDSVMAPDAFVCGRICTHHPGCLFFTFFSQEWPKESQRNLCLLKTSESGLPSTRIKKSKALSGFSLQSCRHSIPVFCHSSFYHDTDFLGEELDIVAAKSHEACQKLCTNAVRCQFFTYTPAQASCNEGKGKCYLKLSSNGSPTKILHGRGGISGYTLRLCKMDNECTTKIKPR", "experiment": "Factor XIa Assay (fluorogenic substrate GPR-AFC)", "format": "biochemical", "conditions": "Factor XIa (FXIa)"}},
  "data": [
    {"smiles": "Cc1c(N2C[C@H]3C[C@H]3C2=O)cnc(C(C)n2cc(NC(=O)c3cncc(-c4c(C(F)F)ccc(Cl)c4F)n3)cn2)c1N", "note": "(single isomer, unassigned) [Example 117, N-(1-((S or R)-1-(3-Amino-4-methyl-5-((1R,SS)-2-oxo-3-azabicyclo[3.1.0]hexan-3-yl)pyridin-2-yl)ethyl)-1H-pyrazol-4-yl)-6-(3-chloro-6-(difluoromethyl)-2-fluorophenyl)pyrazine-2-carboxamide]", "values": [
      {"measurement": "IC50", "setting": "[1]", "value": 1.9, "unit": "nM"},
      {"measurement": "IC50", "setting": "[2]", "value": "> 10000", "unit": "nM"}
    ]},
    {"smiles": "Cc1ncc(-c2c(C(F)F)ccc(Cl)c2F)nc1C(=O)Nc1cnn(C(C)c2cnc(N3C[C@H]4C[C@H]4C3=O)nc2)c1", "note": "(single isomer, unassigned) [Example 30, 6-(3-Chloro-6-(difluoromethyl)-2-fluorophenyl)-3-methyl-N-(1-((R or S)-1-(2-((1R,5S)-2-oxo-3-azabicyclo[3.1.0]hexan-3-yl)pyrimidin-5-yl)ethyl)-1H-pyrazol-4-yl)pyrazine-2-carboxamide]", "values": [
      {"measurement": "IC50", "setting": "[1]", "value": 1.8, "unit": "nM"},
      {"measurement": "IC50", "setting": "[2]", "value": 2830, "unit": "nM"}
    ]},
    {"smiles": "Cc1c(N2C[C@H]3C[C@H]3C2=O)cnc(C(C)n2cc(NC(=O)c3cncc(-c4c(C(F)F)ccc(Cl)c4F)n3)cn2)c1C", "note": "(single isomer, unassigned) [Example 243, 6-(3-Chloro-6-(difluoromethyl)-2-fluorophenyl)-N-(1-((R or S)-1-(3,4-dimethyl-5-((1R,5S)-2-oxo-3-azabicyclo[3.1.0]hexan-3-yl)pyridin-2-yl)ethyl)-1H-pyrazol-4-yl)pyrazine-2-carboxamide]", "values": [
      {"measurement": "IC50", "setting": "[1]", "value": 0.6, "unit": "nM"},
      {"measurement": "IC50", "setting": "[2]", "value": "> 10000", "unit": "nM"}
    ]},
    {"smiles": "Cc1nc([C@@H](C)n2cc(NC(=O)c3nc(-c4c(C(F)F)ccc(Cl)c4F)cnc3C)cn2)ncc1N1C[C@H]2C[C@H]2C1=O", "note": "[Example 2, 6-(3-Chloro-6-(difluoromethyl)-2-fluorophenyl)-3-methyl-N-(1-((R)-1-(4-methyl-5-((1R,5S)-2-oxo-3-azabicyclo[3.1.0]hexan-3-yl)pyrimidin-2-yl)ethyl)-1H-pyrazol-4-yl)pyrazine-2-carboxamide]", "values": [
      {"measurement": "IC50", "setting": "[1]", "value": 11.9, "unit": "nM"},
      {"measurement": "IC50", "setting": "[2]", "value": "> 10000", "unit": "nM"}
    ]},
    {"smiles": "Cc1nc(N2C[C@H]3C[C@H]3C2=O)ncc1[C@@H](C)n1cc(NC(=O)c2cncc(-c3c(C(F)F)ccc(Cl)c3F)n2)cn1", "note": "[Example 23, 6-(3-Chloro-6-(difluoromethyl)-2-fluorophenyl)-N-(1-((R)-1-(4-methyl-2-((1R,5S)-2-oxo-3-azabicyclo[3.1.0]hexan-3-yl)pyrimidin-5-yl)ethyl)-1H-pyrazol-4-yl)pyrazine-2-carboxamide]", "values": [
      {"measurement": "IC50", "setting": "[1]", "value": 48.7, "unit": "nM"},
      {"measurement": "IC50", "setting": "[2]", "value": 7600, "unit": "nM"}
    ]},
    {"smiles": "Cc1nc(Cn2cc(NC(=O)c3cncc(-c4c(C(F)F)ccc(Cl)c4F)n3)cn2)ccc1N1C[C@H]2C[C@H]2C1=O", "note": "[Example 64, 6-(3-Chloro-6-(difluoromethyl)-2-fluorophenyl)-N-(1-((6-methyl-5-((1R,5S)-2-oxo-3-azabicyclo[3.1.0]hexan-3-yl)pyridin-2-yl)methyl)-1H-pyrazol-4-yl)pyrazine-2-carboxamide]", "values": [
      {"measurement": "IC50", "setting": "[1]", "value": 3.4, "unit": "nM"},
      {"measurement": "IC50", "setting": "[2]", "value": "> 10000", "unit": "nM"}
    ]},
    {"smiles": "CCc1nc(C(C)n2cc(NC(=O)c3cncc(-c4c(C(F)F)ccc(Cl)c4F)n3)cn2)cnc1N1C[C@H]2C[C@H]2C1=O", "note": "(single isomer, unassigned) [Example 56, 6-(3-Chloro-6-(difluoromethyl)-2-fluorophenyl)-N-(1-((R or S)-1-(6-ethyl-5-((1R,5S)-2-oxo-3-azabicyclo[3.1.0]hexan-3-yl)pyrazin-2-yl)ethyl)-1H-pyrazol-4-yl)pyrazine-2-carboxamide]", "values": [
      {"measurement": "IC50", "setting": "[1]", "value": 1.5, "unit": "nM"},
      {"measurement": "IC50", "setting": "[2]", "value": "> 10000", "unit": "nM"}
    ]},
    {"smiles": "Cc1nc(C(C)n2cc(NC(=O)c3cncc(-c4c(C(F)(F)F)ccc(Cl)c4F)n3)cn2)cnc1N1C[C@H]2C[C@H]2C1=O", "note": "(single isomer, unassigned) [Example 18]", "values": [
      {"measurement": "IC50", "setting": "[1]", "value": 19.5, "unit": "nM"},
      {"measurement": "IC50", "setting": "[2]", "value": 4080, "unit": "nM"}
    ]},
    {"smiles": "Cc1cc([C@H](C)n2cc(NC(=O)c3nc(-c4c(OC(F)F)ccc(Cl)c4F)cnc3C)cn2)nnc1N1C[C@H]2C[C@H]2C1=O", "note": "[Example 39, 6-(3-Chloro-6-(difluoromethoxy)-2-fluorophenyl)-3-methyl-N-(1-((S)-1-(5-methyl-6-((1R,5S)-2-oxo-3-azabigyclo[3.1.0]hexan-3-yl)pyridazin-3-yl)ethyl)-1H-pyrazol-4-yl)pyrazine-2-carboxamide]", "values": [
      {"measurement": "IC50", "setting": "[1]", "value": 0.4, "unit": "nM"},
      {"measurement": "IC50", "setting": "[2]", "value": 328, "unit": "nM"}
    ]},
    {"smiles": "Cc1nc(N2C[C@H]3C[C@H]3C2=O)ncc1C(C)n1cc(NC(=O)c2nc(-c3c(C(F)F)ccc(Cl)c3F)cc(=O)n2C)cn1", "note": "(single isomer, unassigned) [Example 79, 4-(3-Chloro-6-(difluoromethyl)-2-fluorophenyl)-1-methyl-N-(1-((S or R)-1-(4-methyl-2-((1R,5S)-2-oxo-3-azabicyclo[3.1.0]hexan-3-yl)pyrimidin-5-yl)ethyl)-1H-pyrazol-4-yl)-6-oxo-1,6-dihydropyrimidine-2-carboxamide]", "values": [
      {"measurement": "IC50", "setting": "[1]", "value": 0.5, "unit": "nM"},
      {"measurement": "IC50", "setting": "[2]", "value": 57, "unit": "nM"}
    ]},
    {"smiles": "CC(c1ccc(N2CC3CC3C2=O)nc1)n1cc(NC(=O)c2cncc(-c3c(C(F)F)ccc(Cl)c3F)n2)cn1", "note": "(single isomer, unassigned) [Example 11, 6-(3-Chloro-6-(difluoromethyl)-2-fluorophenyl)-N-(1-((R or S)-1-(6-((1R,5S or 1S,5R)-2-oxo-3-azabicyclo[3.1.0]hexan-3-yl)pyridin-3-yl)ethyl)-1H-pyrazol-4-yl)pyrazine-2-carboxamide]", "values": [
      {"measurement": "IC50", "setting": "[1]", "value": 17.2, "unit": "nM"},
      {"measurement": "IC50", "setting": "[2]", "value": "> 10000", "unit": "nM"}
    ]},
    {"smiles": "C[C@H](c1cnc(N2C[C@H]3C[C@H]3C2=O)nc1N)n1cc(NC(=O)c2cncc(-c3c(C(F)F)ccc(Cl)c3F)n2)cn1", "note": "[Example 170, N-(1-((R)-1-(4-Amino-2-((1R,5S)-2-oxo-3-azabicvclo[3.1.0]hexan-3-yl)pyrimidin-5-yl)ethyl)-1H-pyrazol-4-yl)-6-(3-chloro-6-(difluoromethyl)-2-fluorophenyl)pyrazine-2-carboxamide]", "values": [
      {"measurement": "IC50", "setting": "[1]", "value": 20.7, "unit": "nM"},
      {"measurement": "IC50", "setting": "[2]", "value": "> 10000", "unit": "nM"}
    ]},
    {"smiles": "CC(c1cnc(N2CCN(C)C2=O)nc1)n1cc(NC(=O)c2cncc(-c3c(C(F)F)ccc(Cl)c3F)n2)cn1", "note": "(racemic) [Example 28, (S and R)-6-(3-Chloro-6-(difluoromethyl)-2-fluorophenyl)-N-(1-(1-(2-(3-methyl-2-oxoimidazolidin-1-yl)pyrimidin-5-yl)ethyl)-1H-pyrazol-4-yl)pyrazine-2-carboxamide]", "values": [
      {"measurement": "IC50", "setting": "[1]", "value": 47.4, "unit": "nM"},
      {"measurement": "IC50", "setting": "[2]", "value": "> 10000", "unit": "nM"}
    ]},
    {"smiles": "CC(O)c1ncc(-c2c(C(F)F)ccc(Cl)c2F)nc1C(=O)Nc1cnn(Cc2cnc(N3C[C@H]4C[C@H]4C3=O)c3c2OCO3)c1", "note": "(single isomer, unassigned) [Example 254, 6-(3-Chloro-6-(difluoromethyl)-2-fluorophenyl)-3-((R or S)-1-hydroxyethyl)-N-(1-((4-((1R,5S)-2-oxo-3-azabicyclo[3.1.0]hexan-3-yl)-[1,3]dioxolo[4,5-c]pyridin-7-yl)methyl)-1H-pyrazol-4-yl)pyrazine-2-carboxamide]", "values": [
      {"measurement": "IC50", "setting": "[1]", "value": 1.4, "unit": "nM"},
      {"measurement": "IC50", "setting": "[2]", "value": 157, "unit": "nM"}
    ]},
    {"smiles": "Cc1c(C(CO)n2cc(NC(=O)c3cncc(-c4c(C(F)F)ccc(Cl)c4F)n3)cn2)cnc(N2C[C@H]3C[C@H]3C2=O)c1C", "note": "(single isomer, unassigned) [Example 167, 6-(3-Chloro-6-(difluoromethyl)-2-fluorophenyl)-N-(1-([R or S)-1-(4,5-dimethyl-6-((1R,5S)-2-oxo-3-azabicyclo[3.1.0]hexan-3-yl)pyridin-3-yl)-2-hydroxyethyl)-1H-pyrazol-4-yl)pyrazine-2-carboxamide]", "values": [
      {"measurement": "IC50", "setting": "[1]", "value": 10.5, "unit": "nM"},
      {"measurement": "IC50", "setting": "[2]", "value": 3650, "unit": "nM"}
    ]},
    {"smiles": "Cc1nc([C@H](C)n2cc(NC(=O)c3nc(-c4c(C(F)F)ccc(Cl)c4F)cnc3C)cn2)ncc1N1C[C@H]2C[C@H]2C1=O", "note": "[Example 1, 6-(3-Chloro-6-(difluoromethyl)-2-fluorophenyl)-3-methyl-N-(1-((S)-1-(4-methyl-5-((1R,5S)-2-oxo-3-azabicyclo[3.1.0]hexan-3-yl)pyrimidin-2-yl)ethyl)-1H-pyrazol-4-yl)pyrazine-2-carboxamide]", "values": [
      {"measurement": "IC50", "setting": "[1]", "value": 0.9, "unit": "nM"},
      {"measurement": "IC50", "setting": "[2]", "value": "> 10000", "unit": "nM"}
    ]},
    {"smiles": "Cc1nc(N2CCN(C)C2=O)ncc1[C@H](C)n1cc(NC(=O)c2nc(-c3c(C(F)F)ccc(Cl)c3F)cnc2C)cn1", "note": "[Example 207, (S)-6-(3-Chloro-6-(difluoromethyl)-2-fluorophenyl)-3-methyl-N-(1-(1-(4-methyl-2-(3-methyl-2-oxoimidazolidin-1-yl)pyrimidin-5-yl)ethyl)-1H-pyrazol-4-yl)pyrazine-2-carboxamide]", "values": [
      {"measurement": "IC50", "setting": "[1]", "value": 8.6, "unit": "nM"},
      {"measurement": "IC50", "setting": "[2]", "value": 3280, "unit": "nM"}
    ]},
    {"smiles": "Cc1cc(C(C)n2cc(NC(=O)c3nc(-c4c(OC(F)F)ccc(Cl)c4F)cnc3COC(C)(C)C)cn2)cnc1N1C[C@H]2C[C@H]2C1=O", "note": "(mixture of isomers) [Example 228, 3-(tert-Butoxymethyl)-6-(3-chloro-6-(difluoromethoxy)-2-fluorophenyl)-N-(1-((R and S)-1-(5-methyl-6-((1R,5S)-2-oxo-3-azabicyclo[3.1.0]hexan-3-yl)pyridin-3-yl)ethyl)-1H-pyrazol-4-yl)pyrazine-2-carboxamide]", "values": [
      {"measurement": "IC50", "setting": "[1]", "value": 1.6, "unit": "nM"},
      {"measurement": "IC50", "setting": "[2]", "value": 602, "unit": "nM"}
    ]},
    {"smiles": "Cc1cc(N2C[C@H]3C[C@H]3C2=O)cnc1C(C)n1cc(NC(=O)c2cncc(-c3c(C(F)F)ccc(Cl)c3F)n2)cn1", "note": "(single isomer, unassigned) [Example 62, 6-(3-Chloro-6-(difluoromethyl)-2-fluorophenyl)-N-(1-((S or R)-1-(3-methyl-5-((1R,5S)-2-oxo-3-azabicyclo[3.1.0]hexan-3-yl)pyridin-2-yl)ethyl)-1H-pyrazol-4-yl)pyrazine-2-carboxamide]", "values": [
      {"measurement": "IC50", "setting": "[1]", "value": 4.2, "unit": "nM"},
      {"measurement": "IC50", "setting": "[2]", "value": 7630, "unit": "nM"}
    ]},
    {"smiles": "C[C@@H](c1cnc(N2C[C@H]3C[C@H]3C2=O)nc1)n1cc(NC(=O)c2nc(-c3c(C(F)F)ccc(Cl)c3F)cnc2COC(C)(C)C)cn1", "note": "[Example 192, 3-(tert-Butoxymethyl)-6-(3-chloro-6-(difluoromethyl)-2-fluorophenyl)-N-(1-((S)-1-(2-((1R,5S)-2-oxo-3-azabicyclo[3.1.0]hexan-3-yl)pyrimidin-5-yl)ethyl)-1H-pyrazol-4-yl)pyrazine-2-carboxamide]", "values": [
      {"measurement": "IC50", "setting": "[1]", "value": 4.4, "unit": "nM"},
      {"measurement": "IC50", "setting": "[2]", "value": 6830, "unit": "nM"}
    ]}
  ]
}
